We go through 2 compounds from US20230113501A1, “TREATMENT OF LEUKEMIAS AND LYMPHOMAS WITH COMBINATIONS OF BCL-2 INHIBITORS AND PLK1 INHIBITORS” (Cardiff Oncology, Inc., priority 2020, published 2023).

The structures appear in SMILES notation.

One data set addresses PLK1 (Homo sapiens, UniProt P53350). As to conditions: including other PLK members; cited from earlier work.
The conditions of data set [1]: patients with advanced/metastatic solid tumors, cited from earlier work.
The subject of a further data set is AML cell lines. Conditions: cited from earlier work.
For data set [2], the system named is OCI-AML3 xenograft. The data set can be described thus: Efficacy of onvansertib alone and in combination with venetoclax in an OCI-AML3 xenograft model (tumor volume, survival). In kind it is in vivo, CB17 NOD.SCID mice. Conditions: onvansertib 40 mg/kg.
The subject of data set [3] is OCI-AML3 xenograft. The data set is described as above. Format: in vivo, CB17 NOD.SCID mice. Conditions: for Average tumor volume: oral gavage; for Mean Diff. (vehicle vs. treatment), Dunnett's multiple comparisons test: tumor volumes from day 14. As for the experimental part: In this example, the efficacy of onvansertib alone and in combination with venetoclax was evaluated in an OCI-AML3 xenograft model.
The OCI-AML3 cell line easily engrafts in NOD/SCID mice, maintaining the typical features of NPMc+ AML, including NPM cytoplasmic expression.
OCI-AML3 cells (DSMZ cat no: ACC 582) were cultured in RPMI supplemented with 10% FBS and 1%P/S, in a humidified incubator at 37° C. and 5% CO2. Normocin (Invivogen) was also added according to the manufacturer's recommendation to prevent mycoplasma growth.
(§1) CB17 NOD.SCID mice (female, 5 weeks old) were procured through Envigo (Strain NOD.CB17-Prkdc*scidNCrHsd). Mice were fed Teklad irradiated (sterilized) mouse diet and bedded with Teklad irradiated (sterilized) corncob bedding from Envigo (Indianapolis, Ind.). Mice were housed in Optimice carousel sterile quarters with filtered air supply in disposable cages from Animal Care Systems, Inc. (Centennial, Colo.).
On the day of implantation (Oct. 8, 2019), OCI-AML3 cells were collected and spun at 400 ×g. Media was aspirated and cells were resuspended in 50:50 *Cultrex:PBS (w/o calcium and magnesium) at a concentration of 1×10^8 cells/mL. A volume of 100 μL was injected into the right hind flank of each animal (a total of 1×10^7 cells). Filled syringes and cells were kept on ice to prevent gelling of matrigel. *Cultrex: BME, type 3, 17.24 mg/mL R&D systems Cat. #3632-005-02, Lot #40498J17
(§2) Tumor volumes were monitored, and, when mean tumor volume reached ˜200 mm^3, mice were stratified and placed into (4) treatment groups of (10) mice as outlined in Table 1.
(§3) Treatments were administered by oral gavage (polypropylene needles, Instech, Cat. FTP-20-38) daily for venetoclax for 14 days, and 5 days on 2 days off for two cycles for Onvansertib. For clarity, the combination was dosed so that venetoclax was given daily and the onvansertib was given 5 days on, 2 days off, just like the single agent groups.
Individual tumor volumes were measured by electronic caliper 2× a week.
Using tumor volumes from day 14 (the last day with all mice on study), an ordinary ANOVA test with a Dunnett's multiple comparison was performed using Prism (graphpad v. 8.3.0) (Table 4).
A survival graph was plotted (FIG. 2) and survival analysis (death=takedown for tumor burden limit) was also performed using Prism software (individual comparisons of survival curves using the Mantel-Cox test and Gehan-Breslow-Wilcoxon test shown in Table 5).

Data set [4] can be described thus: Animal health: body weight and tolerability in the OCI-AML3 xenograft study. Conditions: the values are: relative body weight (ratio to day 0). Format: in vivo, CB17 NOD.SCID mice.
Excerpt: as §1, §2, §3
All dosing was performed without any unexpected problems noted. […] Therefore, the single agents and combination were tolerated at the tested dose and schedule.
The group average change in weight relative to day 0 of the study is shown in […]

Setting [5] is: Day 0, venetoclax 75 mg/kg, onvansertib 30 mg/kg.
[6] abbreviates: Day 4, venetoclax 75 mg/kg, onvansertib 30 mg/kg.
Setting [7] is: Day 7, venetoclax 75 mg/kg, onvansertib 30 mg/kg.
[8] abbreviates: Day 11, venetoclax 75 mg/kg, onvansertib 30 mg/kg.
Where [9] appears, read: Day 14, venetoclax 75 mg/kg, onvansertib 30 mg/kg.
The mark [10] stands for this setting: Day 18, venetoclax 75 mg/kg, onvansertib 30 mg/kg.

Sequence of PLK1 (P53350 whole entry): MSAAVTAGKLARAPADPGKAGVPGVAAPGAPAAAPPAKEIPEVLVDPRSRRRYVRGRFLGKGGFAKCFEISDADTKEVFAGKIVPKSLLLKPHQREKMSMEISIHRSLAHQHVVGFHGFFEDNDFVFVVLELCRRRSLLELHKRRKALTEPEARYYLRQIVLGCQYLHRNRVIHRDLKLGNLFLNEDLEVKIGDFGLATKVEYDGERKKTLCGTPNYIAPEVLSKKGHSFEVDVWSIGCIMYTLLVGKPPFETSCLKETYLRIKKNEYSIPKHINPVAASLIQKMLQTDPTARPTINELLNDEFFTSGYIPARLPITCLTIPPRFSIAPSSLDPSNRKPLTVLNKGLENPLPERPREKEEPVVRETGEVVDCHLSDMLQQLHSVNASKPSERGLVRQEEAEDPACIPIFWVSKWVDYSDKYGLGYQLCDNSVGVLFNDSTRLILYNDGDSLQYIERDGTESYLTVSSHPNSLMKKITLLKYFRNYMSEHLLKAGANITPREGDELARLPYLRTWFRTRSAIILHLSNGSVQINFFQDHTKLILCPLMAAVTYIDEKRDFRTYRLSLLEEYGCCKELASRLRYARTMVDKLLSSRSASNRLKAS

In the case of `CN1CCN(c2ccc(OC(F)(F)F)c(Nc3ncc4c(n3)-c3c(c(C(N)=O)nn3CCO)CC4)c2)CC1` [Onvansertib, 1-(2-hydroxyethyl)-8-{[5-(4-methylpiperazin-1l-yl)-2-(trifluoromethoxy)phenyl]amino}-4,5-dihydro-1H-pyrazolo[4,3-h] quinazoline-3-carboxamide], the “Specificity for PLK1 among a panel of 296 kinases” value at PLK1 is reported as “high specificity”. Also, in data set [1], the Half-life is 20 and 30 hours. Moreover, the Primary dose-limiting toxicities entry in data set [1] (reversible, recovery within 3 weeks) is “neutropenia and thrombocytopenia”. Further, the “Concentrations that inhibited cell proliferation” value in the data set with AML cell lines is listed as “nanomolar concentrations”. For the same compound, the “Single agent activity in the previous study” value in the data set with OCI-AML3 xenograft [2] is “single agent activity”. Besides, the Average tumor volume with OCI-AML3 xenograft [3] (setting [5]) came out at 208.48 mm^3; in the data set with OCI-AML3 xenograft [3] (setting [6]) it was 367.54 mm^3; in the data set with OCI-AML3 xenograft [3] (setting [7]), 708.38 mm^3; with OCI-AML3 xenograft [3] (setting [8]) it was 980.01 mm^3; in the data set with OCI-AML3 xenograft [3] (setting [9]), 1461.86 mm^3; with OCI-AML3 xenograft [3] (setting [10]) it was 2269.05 mm^3. Moreover, the “Mean Diff. (vehicle vs. treatment), Dunnett's multiple comparisons test” value in the data set with OCI-AML3 xenograft [3] came out at 960. For the same compound, the “Significant? Dunnett's multiple comparisons test” value in the data set with OCI-AML3 xenograft [3] (tumor volumes from day 14, vehicle vs. treatment) was “Yes”. The “Survival, Gehan-Breslow-Wilcoxon test, Are the survival curves sig different?” value with OCI-AML3 xenograft [3] (vehicle vs. treatment) is reported as “Yes”. Further, the “Survival, Log-rank (Mantel-Cox) test, Are the survival curves sig different?” value in the data set on OCI-AML3 xenograft [3] (vehicle vs. treatment) is listed as “No”. Further, the “Survival, Log-rank (Mantel-Cox) test, Chi square” value in the data set on OCI-AML3 xenograft [3] (vehicle vs. treatment, death = takedown for tumor burden limit) stood at 3.577. For the same compound, in the data set with OCI-AML3 xenograft [3] (vehicle vs. treatment, higher weighing for early events), the “Survival, Gehan-Breslow-Wilcoxon test, Chi square” value came out at 5.221. In addition, the “Activity in the OCI-AML3 xenograft (conclusion)” value in the data set with OCI-AML3 xenograft [3] (venetoclax 75 mg/kg, onvansertib 30 mg/kg, and the combination) is reported as “Activity was noted”. Further, the “Tumor growth inhibition as single agent” value in the data set on OCI-AML3 xenograft [3] (venetoclax 75 mg/kg, onvansertib 30 mg/kg) is on record as “some tumor growth inhibition”. Besides, the Relative body weight (ratio to day 0) in data set [4] (Day 0) turned out to be 1; in data set [4] (Day 4), 1.04; in data set [4] (Day 7), 1.07; in data set [4] (Day 11), 1.1; in data set [4] (Day 14), 1.13; in data set [4] (Day 18) it was 1.18.

On to `CC1(C)CCC(CN2CCN(c3ccc(C(=O)NS(=O)(=O)c4ccc(NCC5CCOCC5)c([N+](=O)[O-])c4)c(Oc4cnc5[nH]ccc5c4)c3)CC2)=C(c2ccc(Cl)cc2)C1` [Venetoclax], for which the Average tumor volume is 203.78 mm^3 in the data set with OCI-AML3 xenograft [3] (setting [5]); 441.01 mm^3 with OCI-AML3 xenograft [3] (setting [6]); 861.05 mm^3 with OCI-AML3 xenograft [3] (setting [7]); 1362.15 mm^3 in the data set with OCI-AML3 xenograft [3] (setting [8]); 2110.23 mm^3 in the data set on OCI-AML3 xenograft [3] (setting [9]); 2856.33 mm^3 in the data set with OCI-AML3 xenograft [3] (setting [10]). For the same compound, in the data set with OCI-AML3 xenograft [3], the “Mean Diff. (vehicle vs. treatment), Dunnett's multiple comparisons test” value came out at 311.6. Besides, the Relative body weight (ratio to day 0) in data set [4] (Day 0) was found to be 1; in data set [4] (Day 4), 1.03; in data set [4] (Day 7), 1.07; in data set [4] (Day 11) it was 1.09; in data set [4] (Day 14) it was 1.12; in data set [4] (Day 18), 1.15.
